Results: patent publication US7892218B2, “pH reducing formulation” (Rostam Ltd., priority 2004, dated 2011)

Tests used:
[1] = Description: The pH lowering ability of glycolide in its crystalline form, obtained from Purac Ltd., Holland, was tested in plasma at 37° C. as a function of time, compared to that of lactide and citric acid (also in crystalline form). All three materials were taken such as to eventually yield equal molar amounts of carboxylic acid groups.
[2] = remark: listed apart in the source
Description: The same experiment was repeated by comparing the pH lowering kinetics of the same compounds, deposited onto a polymeric support in the form of weighed (240 mg), rectangular shaped pieces of non-woven (NW) tampon cloth (hereinafter referred to as “strips”) by evaporation from an acetone solution, substantially as described in WO 02/17981 and U.S. 2002/0045873 whose contents are hereby incorporated by reference in their entireties. The strips may be incorporated in a tampon. The strips were dipped in plasma at 37° C.

Row | time in which degradation was completed [1] | change in degradation rate when deposited on strips [2] | release behaviour on strips (in words) ([2]; non-woven strips, plasma, 37° C. (FIG. 2)) | Compound | degradation / acid release kinetics (in words) [1]
1 | approximately 40 minutes | two-fold increase | – | O=C1COC(=O)CO1 [glycolide] | significantly faster than that of lactide
2 | – | – | behaved as previously described | O=C(O)CC(O)(CC(=O)O)C(=O)O [citric acid] | burst-like immediate release
3 | approximately 120 minutes | two-fold increase | – | CC1OC(=O)C(C)OC1=O (stereo not shown) [lactide] | –
